Source: paper PMC10967427, “Polylactic Glycolic Acid-Mediated Delivery of Plectasin Derivative NZ2114 in Staphylococcus epidermidis Biofilms” (Antibiotics, 2024)

Tested on: S. epidermidis G4 biofilm persister
Assay: Effect on biofilm persisters, colony counting
Type: cell-based, Staphylococcus epidermidis
Conditions: vancomycin 100× MIC, 24 h, induction of persisters
Method: The antibacterial effect of NZ2114 nanoparticles on the persistent bacteria in the biofilm was determined according to the previous study.

CN[C@H](CC(C)C)C(=O)N[C@H]1C(=O)N[C@@H](CC(N)=O)C(=O)N[C@H]2C(=O)N[C@H]3C(=O)N[C@H](C(=O)N[C@H](C(=O)O)c4cc(O)cc(O)c4-c4cc3ccc4O)[C@H](O)c3ccc(c(Cl)c3)Oc3cc2cc(c3O[C@@H]2O[C@H](CO)[C@@H](O)[C@H](O)[C@H]2O[C@H]2C[C@](C)(N)[C@H](O)[C@H](C)O2)Oc2ccc(cc2Cl)[C@H]1O [vancomycin]
Number of viable bacteria in the biofilm after vancomycin: 5.3 × 10^6 CFU/mL
